Assay results taken from the supplement of paper PMC10307832.

What was measured:
Assay in all cases: relative viability (nuclei count vs DMSO), 5 days (fraction); higher = more cells survive
LXF-289 = system: LXF-289
In short: (§1)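 Lung cancer cell lines were pin-tool dosed in 1536-well plates on the day after seeding, with either a lone drug or a fixed anchor-drug dose plus five library-drug doses (not always all listed) in √10 steps. Nuclei were counted on 4× images after 5 days. Relative viability is the ratio of treated-well to vehicle-well nuclei counts, with each value a median of duplicate plates.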

SW 1573 = system: SW 1573
In short: as §1

NCI-H661 = system: NCI-H661
In short: as §1

NCI-H727 = system: NCI-H727
In short: as §1

PC-14 = system: PC-14
In short: as §1

NCI-H2023 = system: NCI-H2023
In short: as §1

NCI-H2009 = system: NCI-H2009
In short: as §1

EMC-BAC-2 = system: EMC-BAC-2
In short: as §1

NCI-H2085 = system: NCI-H2085
In short: as §1

NCI-H1915 = system: NCI-H1915
In short: as §1

NCI-H647 = system: NCI-H647
In short: as §1

SK-LU-1 = system: SK-LU-1
In short: as §1

NCI-H322M = system: NCI-H322M
In short: as §1

NCI-H2347 = system: NCI-H2347
In short: as §1

HOP-62 = system: HOP-62
In short: as §1

NCI-H1993 = system: NCI-H1993
In short: as §1

BEN = system: BEN
In short: as §1

NCI-H2126 = system: NCI-H2126
In short: as §1

NCI-H358 = system: NCI-H358
In short: as §1

LCLC-97TM1 = system: LCLC-97TM1
In short: as §1

NCI-H2342 = system: NCI-H2342
In short: as §1

H3255 = system: H3255
In short: as §1

NCI-H1650 = system: NCI-H1650
In short: as §1

NCI-H1563 = system: NCI-H1563
In short: as §1

C[C@@H]1CN(CC(=O)Nc2ccc3c(c2)Cc2cccc(-c4cc(=O)cc(N5CCOCC5)o4)c2S3)C[C@H](C)O1 + Cc1nc(Nc2ncc(C(=O)Nc3c(C)cccc3Cl)s2)cc(N2CCN(CCO)CC2)n1 [Dasatinib] (partner 0.075 µM)
relative viability (LXF-289; first compound 0.04 µM): 0.185 | relative viability (LXF-289; first compound 0.1265 µM): 0.223 | relative viability (LXF-289; first compound 0.4 µM): 0.203 | relative viability (LXF-289; first compound 4 µM): 0.232 | relative viability (SW 1573; first compound 0.04 µM): 0.736 | relative viability (SW 1573; first compound 0.1265 µM): 0.613 | relative viability (SW 1573; first compound 0.4 µM): 0.515 | relative viability (SW 1573; first compound 4 µM): 0.355 | relative viability (NCI-H661; first compound 0.04 µM): 0.919 | relative viability (NCI-H661; first compound 0.1265 µM): 0.881 | relative viability (NCI-H661; first compound 0.4 µM): 0.968 | relative viability (NCI-H661; first compound 4 µM): 0.797 | relative viability (NCI-H727; first compound 0.04 µM): 0.361 | relative viability (NCI-H727; first compound 0.1265 µM): 0.368 | relative viability (NCI-H727; first compound 0.4 µM): 0.378 | relative viability (NCI-H727; first compound 4 µM): 0.286 | relative viability (PC-14; first compound 0.04 µM): 0.286 | relative viability (PC-14; first compound 0.1265 µM): 0.254 | relative viability (PC-14; first compound 0.4 µM): 0.314 | relative viability (PC-14; first compound 4 µM): 0.147 | relative viability (NCI-H2023; first compound 0.04 µM): 0.638 | relative viability (NCI-H2023; first compound 0.1265 µM): 0.512 | relative viability (NCI-H2023; first compound 0.4 µM): 0.415 | relative viability (NCI-H2023; first compound 4 µM): 0.342 | relative viability (NCI-H2009; first compound 0.04 µM): 0.383 | relative viability (NCI-H2009; first compound 0.1265 µM): 0.29 | relative viability (NCI-H2009; first compound 0.4 µM): 0.305 | relative viability (NCI-H2009; first compound 4 µM): 0.155 | relative viability (EMC-BAC-2; first compound 0.04 µM): 0.386 | relative viability (EMC-BAC-2; first compound 0.1265 µM): 0.34 | relative viability (EMC-BAC-2; first compound 0.4 µM): 0.394 | relative viability (EMC-BAC-2; first compound 4 µM): 0.413 | relative viability (NCI-H2085; first compound 0.04 µM): 0.222 | relative viability (NCI-H2085; first compound 0.1265 µM): 0.245 | relative viability (NCI-H2085; first compound 0.4 µM): 0.235 | relative viability (NCI-H2085; first compound 4 µM): 0.247 | relative viability (NCI-H1915; first compound 0.04 µM): 0.307 | relative viability (NCI-H1915; first compound 0.1265 µM): 0.308 | relative viability (NCI-H1915; first compound 0.4 µM): 0.319 | relative viability (NCI-H1915; first compound 4 µM): 0.278 | relative viability (NCI-H647; first compound 0.04 µM): 0.236 | relative viability (NCI-H647; first compound 0.1265 µM): 0.159 | relative viability (NCI-H647; first compound 0.4 µM): 0.161 | relative viability (NCI-H647; first compound 4 µM): 0.146 | relative viability (SK-LU-1; first compound 0.04 µM): 0.206 | relative viability (SK-LU-1; first compound 0.1265 µM): 0.203 | relative viability (SK-LU-1; first compound 0.4 µM): 0.171 | relative viability (SK-LU-1; first compound 4 µM): 0.15 | relative viability (NCI-H322M; first compound 0.04 µM): 0.277 | relative viability (NCI-H322M; first compound 0.1265 µM): 0.262 | relative viability (NCI-H322M; first compound 0.4 µM): 0.26 | relative viability (NCI-H322M; first compound 4 µM): 0.24 | relative viability (NCI-H2347; first compound 0.04 µM): 0.329 | relative viability (NCI-H2347; first compound 0.1265 µM): 0.39 | relative viability (NCI-H2347; first compound 0.4 µM): 0.248 | relative viability (NCI-H2347; first compound 4 µM): 0.337 | relative viability (HOP-62; first compound 0.04 µM): 0.664 | relative viability (HOP-62; first compound 0.1265 µM): 0.57 | relative viability (HOP-62; first compound 0.4 µM): 0.687 | relative viability (HOP-62; first compound 4 µM): 0.518 | relative viability (NCI-H1993; first compound 0.04 µM): 0.643 | relative viability (NCI-H1993; first compound 0.1265 µM): 0.626 | relative viability (NCI-H1993; first compound 0.4 µM): 0.556 | relative viability (NCI-H1993; first compound 4 µM): 0.641 | relative viability (BEN; first compound 0.04 µM): 0.308 | relative viability (BEN; first compound 0.1265 µM): 0.265 | relative viability (BEN; first compound 0.4 µM): 0.333 | relative viability (BEN; first compound 4 µM): 0.377 | relative viability (NCI-H2126; first compound 0.04 µM): 0.607 | relative viability (NCI-H2126; first compound 0.1265 µM): 0.604 | relative viability (NCI-H2126; first compound 0.4 µM): 0.467 | relative viability (NCI-H2126; first compound 4 µM): 0.418 | relative viability (NCI-H358; first compound 0.04 µM): 0.2 | relative viability (NCI-H358; first compound 0.1265 µM): 0.163 | relative viability (NCI-H358; first compound 0.4 µM): 0.144 | relative viability (NCI-H358; first compound 4 µM): 0.157 | relative viability (LCLC-97TM1; first compound 0.04 µM): 0.839 | relative viability (LCLC-97TM1; first compound 0.1265 µM): 0.744 | relative viability (LCLC-97TM1; first compound 0.4 µM): 0.794 | relative viability (LCLC-97TM1; first compound 4 µM): 0.893 | relative viability (NCI-H2342; first compound 0.04 µM): 0.326 | relative viability (NCI-H2342; first compound 0.1265 µM): 0.292 | relative viability (NCI-H2342; first compound 0.4 µM): 0.29 | relative viability (NCI-H2342; first compound 4 µM): 0.306 | relative viability (H3255; first compound 0.04 µM): 0.432 | relative viability (H3255; first compound 0.1265 µM): 0.347 | relative viability (H3255; first compound 0.4 µM): 0.424 | relative viability (H3255; first compound 4 µM): 0.346 | relative viability (NCI-H1650; first compound 0.04 µM): 0.31 | relative viability (NCI-H1650; first compound 0.1265 µM): 0.293 | relative viability (NCI-H1650; first compound 0.4 µM): 0.301 | relative viability (NCI-H1650; first compound 4 µM): 0.244 | relative viability (NCI-H1563; first compound 0.04 µM): 0.433 | relative viability (NCI-H1563; first compound 0.1265 µM): 0.429 | relative viability (NCI-H1563; first compound 0.4 µM): 0.445 | relative viability (NCI-H1563; first compound 4 µM): 0.433
